The assay deals with T1, 5-lipoxygenase (Mus musculus, UniProt P48999).
T1 construct: The supernatant is used as a 5-lipogenase enzyme solution; endogenous in cells
T1 sequence (P48999 1-674): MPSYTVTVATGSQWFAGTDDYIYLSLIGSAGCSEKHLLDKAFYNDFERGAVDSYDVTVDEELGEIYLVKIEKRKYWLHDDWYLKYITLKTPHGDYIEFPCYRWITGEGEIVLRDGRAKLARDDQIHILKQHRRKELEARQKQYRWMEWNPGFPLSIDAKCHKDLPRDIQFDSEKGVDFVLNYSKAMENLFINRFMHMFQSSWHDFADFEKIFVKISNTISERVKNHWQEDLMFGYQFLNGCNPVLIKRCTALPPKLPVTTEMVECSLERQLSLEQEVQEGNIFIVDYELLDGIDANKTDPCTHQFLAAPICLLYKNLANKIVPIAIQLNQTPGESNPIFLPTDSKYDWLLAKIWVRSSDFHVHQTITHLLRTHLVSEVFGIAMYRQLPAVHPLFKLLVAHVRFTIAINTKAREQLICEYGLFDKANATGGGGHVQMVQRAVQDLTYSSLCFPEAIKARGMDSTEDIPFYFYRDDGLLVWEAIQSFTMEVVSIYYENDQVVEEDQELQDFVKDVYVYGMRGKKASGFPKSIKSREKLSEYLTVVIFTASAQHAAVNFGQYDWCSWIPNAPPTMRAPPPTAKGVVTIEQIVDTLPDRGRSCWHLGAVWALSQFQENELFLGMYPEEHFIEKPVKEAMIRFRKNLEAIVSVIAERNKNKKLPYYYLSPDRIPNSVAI
Put plainly: 5-Lipoxygenase-inhibiting Activity (decrease in 5-HETE and LTB4 formed from radiolabelled arachidonic acid, enzyme solution from mouse mastcytoma cells P-815). In kind it is biochemical. The method, boiled down:
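Enzyme is sonicated 10,000 rpm supernatant of P-815 mouse mastocytoma cells, reacted 5 min at 37 °C with radiolabelled arachidonic acid, indomethacin and CaCl2 in pH 7.4 phosphate buffer. 5-HETE and LTB4 separated by TLC and counted by scintillation; IC50 or IC30 is concentration reducing product to 50% or 30% of control.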

[1] abbreviates: 5-HETE and LTB4 formation, mouse mastcytoma P-815 enzyme solution, 37° C., 5 min, pH 7.4, with indomethacin, read-out: 50% Inhibitory concentration IC50.

Here are results for 16 compounds from patent US4673684A, “Amide derivatives and 5-lipoxygenase inhibitors containing the same as an active ingredient” (Terumo Corporation, priority 1984, dated 1987).

Structures are written as SMILES. Where two headings read alike, the source gives them in different places.

Take `COc1cc(/C=C/C(=O)NCCCCN2CCN(C(c3ccccc3)c3ccccc3)CC2)ccc1O` [Example 68]: the IC50 under setting [1] was determined as 40 nM.

Regarding `O=C(/C=C/C=C/c1ccc(O)c(O)c1)NCCCN1CCN(C(c2ccccc2)c2ccccc2)CC1` [Example 44, N-benzhydryl-N'-[[5-{3,4-dihydroxyphenyl)-2,4-pentadienoyl}aminopropyl]piperazine], the IC50 under setting [1] is 80 nM.

Regarding `COc1cc(/C=C/C=C/C(=O)NCCCN2CCN(C(c3ccccc3)c3ccc(Cl)cc3)CC2)ccc1O` (stereo not shown) [Example 39, N-(p-chlorobenzhydryl)-N'-[3-{5-(3-methoxy-4-hydroxyphenyl)-2,4-pentadienoyl)aminopropyl]piperazine], the IC50 under setting [1] is 100 nM.

Consider `COc1cc(/C=C/C=C/C(=O)NCCN2CCN(C(c3ccccc3)c3ccc(Cl)cc3)CC2)ccc1O` (stereo not shown) [Example 16, N-(p-chlorobenzhydryl)-N'-[2-{5-(3-methoxy-4-hydroxyphenyl)-2,4-pentadienoyl}aminoethyl]piperazine], for which, under setting [1], the IC50 is 60 nM.

Consider `Cn1c(=O)c2c(ncn2CCCN2CCN(C(=O)/C=C/C=C/c3ccc(O)c(O)c3)CC2)n(C)c1=O` [Example 128, 7-[3-[4-[5-(-dihydroxyphenyl)-2,4-pentadienoyl]piperazi-1-nyl]-1-propyl]theophylline], for which, under setting [1], the IC50 was 1000 nM.

As to `O=C(/C=C/C=C/c1ccc(O)c(O)c1)NCCCCNC(=O)/C=C/C=C/c1ccc(O)c(O)c1` [Example 21, N,N'-di[5-(3,4-dihydroxyphenyl)-2,4-pentadienoyl]-1,4-diaminobutane], under setting [1], the IC50 was 30 nM.

In the case of `COc1ccc(/C=C/C(=O)NCCOC(c2ccccc2)c2ccccc2)cc1OC` [Example 77, 2-[3-(3,4-dimethoxyphenyl)-2-propenoyl]aminoethyl benzhydryl ether], the IC50 under setting [1] is 10000 nM.

Consider `CC(OCCCN1CCN(C(=O)/C=C/c2ccc(O)c(O)c2)CC1)(c1ccccc1)c1ccc(Cl)cc1` (stereo not shown) [Example 101, N-[3-(3,4-dihydroxyphenyl)-2-propenoyl]-N'-[3-[1-phenyl-1-(p-chlorophenyl)ethoxy]propyl]piperazine], for which, under setting [1], the IC50 was 10 nM.

For `COc1cc(/C=C/C(=O)N2CCN(CCOC(c3ccccc3)c3ccccc3)CC2)cc(OC)c1O` [Example 79, N-[3-(3,5-dimethoxy-4-hydroxyphenyl) -2-propenoyl]-N'-(2-benzhydroxyethyl)piperazine], the IC50 was 40 nM.

With `O=C(/C=C/C=C/c1ccc(O)c(O)c1)N1CCN(CCCOC(c2ccccc2)c2ccccc2)CC1` [Example 85, N-[5,[3,4-hydroxyphenyl]-2,4-pentadienoyl]-N'-(3-benzhydroxypropyl)piperazine], the IC50 under setting [1] is 30 nM.

For `CC/C=C\C/C=C\C/C=C\CCCCCCCC(=O)NCCCCNC(=O)/C=C/c1ccc(O)c(OC)c1` [Example 3, N-[3-(3-methoxy-4-hydroxyphenyl)-2-propenoyl]-N'-[9,12,15-octadecatrienoyl]-1,4-diaminobutan], the IC50 under setting [1] is 900 nM.

`Cn1c(=O)c2c(ncn2CCCCN2CCN(C(=O)/C=C/c3ccc(O)c(O)c3)CC2)n(C)c1=O` [Example 121, 7-[4-[4-{3-(3,4-dihydroxyphenyl)-2-propenoyl}piperazi-1-nyl]butyl]theophylline]: under setting [1], the IC50 was found to be 5000 nM.

For `COc1cc(/C=C/C(=O)N2CCN(CCCOC(c3ccccc3)c3ccccc3)CC2)cc(OC)c1O` [Example 80, N-[3-(3,5-dimethoxy-4-hydroxyphenyl) 2-propenoyl]-N'-(3-benzhydroxypropyl)piperazine], the IC50 under setting [1] is 30 nM.

As for `COc1cc(/C=C/C(=O)NCCN2CCN(C(c3ccccc3)c3ccc(Cl)cc3)CC2)ccc1O` (stereo not shown) [Example 1, N-(p-chlorobenzhydryl)-N'-[2-{3-(3-methoxy-4-hydroxyphenyl)-2-propenoyl}-aminoethyl]piperazine], the IC50 under setting [1] turned out to be 500 nM.

With `COc1cc(/C=C/C=C/C(=O)N2CCN(CCCOC(c3ccccc3)c3ccccc3)CC2)cc(OC)c1O` [Example 99], the IC50 under setting [1] was 30 nM.

Turning to `COc1cc(/C=C/C=C/C(=O)NCCn2cnc3c2c(=O)n(C)c(=O)n3C)cc(OC)c1OC` [Example 95], the IC50 under setting [1] turned out to be 9000 nM.
